Reference: a melting point compilation (Tetko et al.; mined from patent text by program, amines drawn as free bases though some values may be those of a salt)

Going from CC(=O)OC1CSC(Oc2ccc(-c3ccncc3)cc2F)C(OC(C)=O)C1OC(C)=O (stereo unspecified) to CC(=O)OC1CSC(Oc2cccc(-c3ccc(C)o3)c2)C(OC(C)=O)C1OC(C)=O (stereo unspecified), the melting point falls from 179 °C to 132 °C.

First: CC(C)(C(=O)O)c1ccc(C(=O)C2CC2)cc1
Second: COC(=O)c1ccc(NC(C)=O)c(I)c1
The melting point of the first is lower: 84 to 88 °C for the first, 140 to 141 °C for the second.

First: COc1cc([C@H]2CC[C@H](c3cc(OC)c(OC)c(OC)c3)S2)cc(OC)c1OC (relative stereo)
Second: COc1cc2c(Cl)c(C#N)cnc2cc1OCc1ccccc1
The melting point of the first is lower: 133 to 134 °C for the first, 282 to 284 °C for the second.

First: CCNS(=O)(=O)c1nc2ccccc2n1CC
Second: Cc1noc(NS(=O)(=O)c2cccc(Cl)c2)c1Br
The melting point of the first is higher: 135 to 139 °C for the first, 132 to 134 °C for the second.

Compared with Cc1cc(F)ccc1CCC(=O)O, C[Si](C)(C)c1cccc(Br)c1C(=O)O is higher in melting point: 112 to 113 °C for the first, 139 to 141 °C for the second.

First: Cc1ccnc(-c2ccc(Br)cc2)c1
Second: Cc1ccc(-c2ccc3c(c2)C=C(CO)CCO3)cc1
The melting point of the first is higher: 126 °C for the first, 91 to 92 °C for the second.

First: CCC(=O)c1[nH]c2cc(Cl)ccc2c1NC(C)=O
Second: O=C(O)Cc1c(C(=O)c2cccc(-c3ccco3)c2)[nH]c2cc(Cl)ccc12
The melting point of the first is higher: greater than 270 °C for the first, 246 to 249 °C for the second.

First: OCCCCCCOc1ccc(OCc2ccccc2)cc1
Second: Oc1ccc(OCCCCCCBr)cc1
The melting point of the first is higher: 94 to 97 °C for the first, 43 to 45 °C for the second.

First: COc1ccc(Cn2c(=O)c3c(N4CCN(C)CC4)cc(Cl)cc3n(Cc3ccccc3)c2=O)cc1
Second: N#Cc1c(N2CCN(C(=O)c3ccc4ccccc4n3)CC2)c2ccccc2n(Cc2ccc(F)cc2)c1=O
The melting point of the first is lower: 81 to 89 °C for the first, 144 to 157 °C for the second.

First: CC(CCC(=O)NCCS(=O)(=O)O)C1CCC2C3C(O)CC4CC(NC(=O)CNC(=O)OC(C)(C)C)CCC4(C)C3CC(O)C12C (stereo unspecified)
Second: CCCCCCNC(=O)OC1CCN(C(=O)OCCCCCCNC(=O)Oc2ccc(Oc3ccccc3)cc2)CC1
The melting point of the first is higher: 150 to 155 °C for the first, 84 to 86 °C for the second.

First: CCCOc1ccc2c(c1)[C@H](c1ccc(OC)cc1-c1ccccc1)[C@@H](C(=O)O)[C@@H]2c1ccc2c(c1)OCO2 (racemic)
Second: CCCOc1ccccc1-c1nc2c(C(=O)O)cccc2c(=O)[nH]1
The melting point of the first is higher: 199 to 200 °C for the first, 195 to 197 °C for the second.

First: CCCN(CCC)c1nc2c(c(-c3c(C)cc(C)cc3C)cn2C)c(=O)n1C
Second: Cc1cc(C(O)(c2ccc3c(cnn3-c3ccc(F)cc3)c2)C(F)(F)F)cn(C)c1=O (stereo unspecified)
The melting point of the first is lower: 100 to 102 °C for the first, greater than 200 °C for the second.

First: O=C(CCc1cccc([N+](=O)[O-])c1)Nc1ccc(Nc2ccccc2)cc1
Second: CC(=O)Nc1ccc(Nc2ccccc2)cc1
The melting point of the first is lower: 130 to 132 °C for the first, 169 to 171 °C for the second.

First: COc1ccc(C(=O)Nc2nc(C(Cl)(Cl)Cl)ns2)cc1
Second: O=C(Nc1ccc(Cl)nc1)c1ccc(Cl)o1
The melting point of the first is higher: 172 °C for the first, 143 to 144 °C for the second.

O=c1nc(-c2ccsc2)c2c(=O)nc(-c3ccsc3)c1=2 and O=S(=O)(c1cccs1)N1CCc2[nH]c3c(cnc4cc(Cl)ccc43)c2C1 cannot be ordered by melting point: greater than 400 °C for the first, greater than 250 °C for the second.

First: O=C(O)C=CC(=O)NCCCCCCCCCCCCCCCCCCCC(=O)O
Second: Cc1ccc(OCCCCCCCCCCC(Cl)(Cl)C(=O)O)cc1
The melting point of the first is higher: 146 to 148 °C for the first, 67 to 68 °C for the second.

Going from CCC(C)(C)c1ccc(Oc2ccncc2NC(=O)c2ccccc2)c(C(C)(C)CC)c1 to CP(C)(=O)COC(=O)c1ccccc1Nc1cccc(C(F)(F)F)c1, the melting point falls from 253 °C to 85 °C.

First: COC(=O)c1cc(N2C(=O)C3C4CC4CN3C2=O)c(F)cc1Cl (stereo unspecified)
Second: Cc1cc(C2N(c3ccccc3)CCN2c2ccccc2)cc(Cl)c1O
The melting point of the first is lower: 59 to 62 °C for the first, 146 to 147 °C for the second.

Compared with Cc1ccc(OCCN2CCN(c3nc(N)nc(-c4cc(Cl)ccc4Cl)n3)CC2)cc1, Cc1cc(-n2cccn2)c2cccc(OCc3c(Cl)ccc(S(=O)(=O)N4CCC[C@H]4C(=O)NCC4CCN(CCCO)CC4)c3Cl)c2n1 is lower in melting point: 140 to 141 °C for the first, 112 °C for the second.

Compared with CN1CCC23c4c5cccc4OC2C(=O)CCC3(O)C1C5 (stereo unspecified), CN1CCN(c2cccc3c2C[C@H](N(C)C(=O)c2ccc(C(F)(F)F)cc2)CC3)CC1 is lower in melting point: 223 to 225 °C for the first, 123 to 125 °C for the second.

First: CC(C)c1nc(C(O)(C(F)(F)F)C(F)(F)F)[nH]c1-c1ccccc1
Second: CSC(C)(C(=O)O)c1ccc2oc(Cc3nc(-c4ccccc4)oc3C)cc2c1 (stereo unspecified)
The melting point of the first is lower: 80 to 81 °C for the first, 178 to 179 °C for the second.

First: C[Si](C)(C)CC(C#N)CC(=O)O (stereo unspecified)
Second: CCOC(=O)C(C#N)=CNc1ncc(C)cc1C
The melting point of the first is lower: 39 to 41 °C for the first, 156 to 159 °C for the second.

First: N#Cc1ccc(C(F)(F)F)cc1N=NNc1cc(C(F)(F)F)ccc1C#N
Second: O=C(NCCCO)c1cccc(-c2cccn3c(=O)n(Cc4cccc(C(F)(F)F)c4)nc23)c1
The melting point of the first is higher: 183 to 184 °C for the first, 148 to 149 °C for the second.

Compared with N=C(N)N1CCN(C23CC4CC(CC(C4)C2)C3)CC1, COc1nc(C)c(C(C)O)cc1NC(=O)N1CCN(c2cccc(C)c2C)CC1 (stereo unspecified) is lower in melting point: 182 to 186 °C for the first, 100 to 102 °C for the second.

First: O=C(CCCC1CCCCC1)N1C(=O)OC[C@@H]1Cc1ccccc1
Second: O=C(NCC1Cc2ccc3ccccc3c2O1)OCc1ccccc1 (stereo unspecified)
The melting point of the first is lower: 69 to 70 °C for the first, 110 to 112 °C for the second.

Compared with COC(C)(C(=S)N(C)C)c1ccccn1 (stereo unspecified), CNC(=O)C(C)Oc1ncn(-c2cccc(Cl)c2)n1 (stereo unspecified) is higher in melting point: 67.8 to 70 °C for the first, 120 to 122 °C for the second.

Compared with CCCC=C1SC(=S)N(N=c2sc3ccccc3s2)C1=O, CCOC(=O)CCCCn1c(=O)[nH]c2ccc(O)cc2c1=O is lower in melting point: 236 to 238 °C for the first, 105 to 107 °C for the second.

Compared with COCCOc1ccc(CN(C(=O)C2CCCc3c(O)cccc32)c2ccc(C(C)C)cc2)cn1 (stereo unspecified), Cc1ccc(N2C(=O)C(O)=C(C(=O)c3ccc(C(C)C)cc3)C2c2ccc(-n3cncn3)cc2)nn1 (stereo unspecified) is higher in melting point: 153 °C for the first, 284 °C for the second.

First: Cc1c(CO)ncc(Br)c1N1CCCCC1
Second: CC(C)(S)CN1CCC(CCO)CC1
The melting point of the first is higher: 80 to 81 °C for the first, 42 °C for the second.

First: CC(=O)Nc1nccc(Oc2ccc3c(C(=O)Nc4cccc(C(F)(F)F)c4)cccc3c2)n1
Second: O=c1c(Cl)c(OCc2ccc(F)cc2F)ccn1Cc1cccc2cnccc12
The melting point of the first is lower: 216 to 217 °C for the first, 235 to 238 °C for the second.

Compared with Cc1c(NC(=O)OCc2ccccc2)cccc1C(C[N+](=O)[O-])c1c[nH]c2ccc(N3CCOCC3)cc12 (stereo unspecified), Cc1cc(NC(c2ccccc2)(c2ccccc2)c2ccccc2)no1 is higher in melting point: 140 °C for the first, 196 to 199 °C for the second.

First: O=C(Nc1ccc(Cl)nc1)C1=NN(c2ccc(Cl)cc2)C(c2ccc(F)cc2)C1 (stereo unspecified)
Second: CCN(c1nc(C)cc(C(=O)c2ccc(F)cc2)n1)c1ccc(C(C)C)cc1Br
The melting point of the first is higher: 191 to 193 °C for the first, 70 °C for the second.

Compared with CCCC(=NOCC)C1=C(O)CC(c2ccc(S(C)=O)cc2)CC1=O (stereo unspecified), COC(=O)c1ccc(CCc2nc(NC(C)=O)sc2Cc2ccc(S(C)(=O)=O)cc2)cc1 is higher in melting point: 72 to 74 °C for the first, 209 to 210 °C for the second.

First: COc1ccc(NCCSC#N)c([N+](=O)[O-])c1
Second: COc1ccc2c(c1)S(=O)(=O)NC(C)N2 (stereo unspecified)
The melting point of the first is lower: 116 to 118 °C for the first, 208 to 218 °C for the second.

First: CN1C(c2cnc3ccccc3c2)c2ccccc2CC1(C)C (stereo unspecified)
Second: CSc1ccc(Br)cc1C(=O)Cn1cccc1
The melting point of the first is lower: 116 to 118 °C for the first, 138 to 139 °C for the second.

Compound NC(=O)c1cnc2ccsc2c1Cl has a melting point of 180 to 182 °C.
